According to patent US20210244735A1, “COMPOSITIONS AND METHODS FOR TREATING MYELOFIBROSIS” (Impact Biomedicines, Inc., priority 2010, published 2021):
Entries after “also recorded” stand apart in the source; their conditions may differ. Counter-ions that a name gives are not always drawn. Like-named read-outs stand apart in the source and are kept apart here. Marks after values point to notes of the source that are not given here.

Test system: subjects with MF
[1] = patients who started at ≥680 mg
[2] = started at ≥680 mg, 24 patients not requiring RBC transfusions at baseline
[3] = subject 106-024, 800/680 mg/day, onset day 87, recovered/resolved
[4] = treatment-emergent laboratory finding, MTD subjects (N=40)
[5] = treatment-emergent, MTD subjects (N=40)

Cc1cnc(Nc2ccc(OCCN3CCCC3)cc2)nc1Nc1cccc(S(=O)(=O)NC(C)(C)C)c1 [TG101348, N-tert-butyl-3-[(5-methyl-2-{[4-(2-pyrrolidin-1-ylethoxy)phenyl]amino}pyrimidin-4-yl)amino]benzenesulfonamide dihydrochloride monohydrate]
Grades 3/4 asymptomatic increase in creatinine (overall): 0%
Grades 3/4 asymptomatic increase in serum lipase (overall): 10%
Gr1/2 serum creatinine elevation [1]: 38%
Gr1/2 transaminitis [1]: 38%
Gr3 neutropenia [1]: 15%
Gr3 thrombocytopenia [1]: 20%
Gr4 neutropenia [1]: 0%
Gr4 thrombocytopenia [1]: 10%
asymptomatic hyperlipasemia [1]: 33%
dose-limiting toxicity (DLT) (seen at 800 mg/day, dihydrochloride monohydrate): asymptomatic grade 3 or 4 amylasemia/lipasemia that was reversible; also recorded: asymptomatic grade 3 or 4 hyperamylasemia (with or without hyperlipasemia) that was reversible
Grade 3 anemia [2]: 42 % of patients
Grade 4 anemia [2]: 8 % of patients
serious adverse event Neutropenia, CTCAE Severity Grade (subject 101-047, 680/680 mg/day, onset day 52, recovered/resolved): 2
serious adverse event Depression, CTCAE Severity Grade (subject 104-015, 360/520 mg/day, onset day 256, permanently discontinued, not recovered/not resolved): 3*
serious adverse event Hyperlipasemia, CTCAE Severity Grade (subject 105-013, 240/0 mg/day, onset day 356, recovered/resolved): 4
serious adverse event Thrombocytopenia, CTCAE Severity Grade (subject 105-013, starting dose/dose at event 240/360 mg/day, onset day 215, recovered/resolved): 4
serious adverse event Gallbladder pain, CTCAE Severity Grade (subject 105-056, 680/520 mg/day, onset day 95, recovered/resolved with sequelae): 3
serious adverse event Cerebrovascular accident, CTCAE Severity Grade (subject 105-056, 680/680 mg/day, onset day 22, recovered/resolved): 4
serious adverse event Hyperlipasemia, CTCAE Severity Grade (subject 105-059, 680/520 mg/day, onset day 28, recovered/resolved): 3
serious adverse event Hyperlipasemia, CTCAE Severity Grade (subject 105-059, 680/680 mg/day, onset day 8, recovered/resolved): 3
serious adverse event Dehydration, CTCAE Severity Grade (subject 106-024, 800/400 mg/day, onset day 474, recovered/resolved): 3
serious adverse event Tumor lysis syndrome, CTCAE Severity Grade (subject 106-024, 800/440 mg/day, onset day 366, recovered/resolved): 3
serious adverse event Dehydration, CTCAE Severity Grade [3]: 2
serious adverse event Diarrhea, CTCAE Severity Grade [3]: 3
serious adverse event Nausea, CTCAE Severity Grade [3]: 2
serious adverse event Vomiting, CTCAE Severity Grade [3]: 2
serious adverse event Pleuritic pain, CTCAE Severity Grade (subject 106-033, 680/680 mg/day, onset day 8, recovered/resolved): 2
serious adverse event Dehydration, CTCAE Severity Grade (subject 106-045, 680/440 mg/day, onset day 170, recovered/resolved): 3
cytokine rebound upon discontinuation without prior dose reduction or tapering (subjects that were discontinued): did not experience “cytokine rebound”
emergence of transfusion requirement (subjects who initiated treatment at 680 mg/day): 72%
emergence of transfusion requirement (subjects who initiated treatment at 240-520 mg/day): 33%
ALT increased Grade 2 [4]: 8 (20%) subjects (%)
ALT increased Grade 3 [4]: 2 (5%) subjects (%)
ALT increased Grade 4 [4]: 0 subjects (%)
AST increased Grade 2 [4]: 5 (13%) subjects (%)
AST increased Grade 3 [4]: 1 (3%) subjects (%)
AST increased Grade 4 [4]: 0 subjects (%)
Creatinine increased Grade 2 [4]: 11 (28%) subjects (%)
Creatinine increased Grade 3 [4]: 0 subjects (%)
Creatinine increased Grade 4 [4]: 0 subjects (%)
Hyperamylasemia Grade 2 [4]: 0 subjects (%)
Hyperamylasemia Grade 3 [4]: 1 (3%) subjects (%)
Hyperamylasemia Grade 4 [4]: 1 (3%) subjects (%)
Hyperkalemia Grade 2 [4]: 3 (8%) subjects (%)
Hyperkalemia Grade 3 [4]: 2 (5%) subjects (%)
Hyperkalemia Grade 4 [4]: 1 (3%) subjects (%)
Hyperlipasemia Grade 2 [4]: 4 (10%) subjects (%)
Hyperlipasemia Grade 3 [4]: 3 (8%) subjects (%)
Hyperlipasemia Grade 4 [4]: 2 (5%) subjects (%)
Hypocalcemia Grade 2 [4]: 8 (20%) subjects (%)
Hypocalcemia Grade 3 [4]: 3 (8%) subjects (%)
Hypocalcemia Grade 4 [4]: 0 subjects (%)
Abdominal pain Grade 1 [5]: 5 (13%) subjects (%)
Abdominal pain Grade 2 [5]: 0 subjects (%)
Abdominal pain Grade 3 [5]: 0 subjects (%)
Abdominal pain Grade 4 [5]: 0 subjects (%)
Anorexia Grade 1 [5]: 7 (18%) subjects (%)
Anorexia Grade 2 [5]: 0 subjects (%)
Anorexia Grade 3 [5]: 1 (3%) subjects (%)
Anorexia Grade 4 [5]: 0 subjects (%)
Constipation Grade 1 [5]: 6 (15%) subjects (%)
Constipation Grade 2 [5]: 1 (3%) subjects (%)
Constipation Grade 3 [5]: 0 subjects (%)
Constipation Grade 4 [5]: 0 subjects (%)
Contusion Grade 1 [5]: 5 (13%) subjects (%)
Contusion Grade 2 [5]: 0 subjects (%)
Contusion Grade 3 [5]: 0 subjects (%)
Contusion Grade 4 [5]: 0 subjects (%)
Diarrhea Grade 1 [5]: 21 (53%) subjects (%)
Diarrhea Grade 2 [5]: 4 (10%) subjects (%)
Diarrhea Grade 3 [5]: 5 (13%) subjects (%)
Diarrhea Grade 4 [5]: 0 subjects (%)
Edema peripheral Grade 1 [5]: 7 (18%) subjects (%)
Edema peripheral Grade 2 [5]: 1 (3%) subjects (%)
Edema peripheral Grade 3 [5]: 0 subjects (%)
Edema peripheral Grade 4 [5]: 0 subjects (%)
Fatigue Grade 1 [5]: 2 (5%) subjects (%)
Fatigue Grade 2 [5]: 3 (8%) subjects (%)
Fatigue Grade 3 [5]: 1 (3%) subjects (%)
Fatigue Grade 4 [5]: 0 subjects (%)
Headache Grade 1 [5]: 4 (10%) subjects (%)
Headache Grade 2 [5]: 1 (3%) subjects (%)
Headache Grade 3 [5]: 0 subjects (%)
Headache Grade 4 [5]: 0 subjects (%)
Nausea Grade 1 [5]: 20 (50%) subjects (%)
Nausea Grade 2 [5]: 6 (15%) subjects (%)
Nausea Grade 3 [5]: 2 (5%) subjects (%)
Nausea Grade 4 [5]: 0 subjects (%)
Neutropenia Grade 3 [5]: 6 (15%) subjects (%)
Neutropenia Grade 4 [5]: 0 subjects (%)
Proteinuria Grade 1 [5]: 2 (5%) subjects (%)
Proteinuria Grade 2 [5]: 3 (8%) subjects (%)
Proteinuria Grade 3 [5]: 0 subjects (%)
Proteinuria Grade 4 [5]: 0 subjects (%)
Thrombocytopenia Grade 3 [5]: 8 (20%) subjects (%)
Thrombocytopenia Grade 4 [5]: 5 (13%) subjects (%)
Vomiting Grade 1 [5]: 20 (50%) subjects (%)
Vomiting Grade 2 [5]: 7 (18%) subjects (%)
Vomiting Grade 3 [5]: 1 (3%) subjects (%)
Vomiting Grade 4 [5]: 0 subjects (%)
